The target of series [1] is VIM-2 (Escherichia coli, UniProt Q5U7L7). Nature of the series: MBL inhibition, FC-5 fluorescence assay, VIM-2. It is filed as biochemical. Particulars: FC-5 cephalosporin substrate, ranges of obtained pIC50, read-out: pIC50 VIM-2 (converted). The method in brief: (§1)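 Compound dilutions are incubated with enzyme and FC-5; the released fluorophore is read kinetically at ex 380/em 460 nm. Initial velocities are normalized and fitted (log inhibitor vs response, variable slope).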

For series [2], the target named is NDM-1 (Klebsiella pneumoniae, UniProt C7C422). The experiment in a line: MBL inhibition, FC-5 fluorescence assay, NDM-1. It is filed as biochemical. The conditions noted are these: FC-5 cephalosporin substrate, fluorescence; ranges of obtained pIC50; read-out: pIC50 NDM-1 (converted). The method in brief: as §1
Series [3] addresses IMP-1 (Serratia marcescens, UniProt P52699). Nature of the series: MBL inhibition, FC-5 fluorescence assay, IMP-1. The conditions noted are these: FC-5 cephalosporin substrate, fluorescence; ranges of obtained pIC50; read-out: pIC50 IMP-1 (converted). It is filed as biochemical. The method in brief: as §1
Series [4] deals with VIM-1 (Pseudomonas aeruginosa, UniProt A0A0F7KYQ8). The experiment in a line: MBL inhibition, FC-5 fluorescence assay, VIM-1. The format is biochemical. The conditions noted are these: FC-5 cephalosporin substrate, ranges of obtained pIC50, read-out: pIC50 VIM-1 (converted). The essentials: as §1
The subject of series [5] is Acinetobacter baumannii NDM-1. The experiment in a line: Antibiotic susceptibility testing (MIC), AB NDM-1. It is filed as cell-based. Particulars: agar or broth dilution (CLSI/EUCAST). As for the experimental part:
(§2) Antibiotic susceptibility testing was performed using the agar or broth dilution method, in line with the Clinical and Laboratory Standards Institute (CLSI) and European Committee on Antimicrobial Susceptibility Testing (EUCAST) requirements.

For series [6], the system named is Escherichia coli NDM-7. The experiment in a line: Antibiotic susceptibility testing (MIC), EC NDM-7. Particulars: agar or broth dilution (CLSI/EUCAST). The format is cell-based. As for the experimental part:
as §2
For orientation: In broth dilution the organism is exposed to a series of concentrations in liquid medium.

The test system of series [7] is Escherichia coli NDM-1. Nature of the series: Antibiotic susceptibility testing (MIC), EC NDM-1. Particulars: agar or broth dilution (CLSI/EUCAST). It is filed as cell-based. Here is the method: as §2
Series [8] in a line: Metabolic stability in human hepatocytes. It is filed as in vitro ADME. The conditions noted are these: cryopreserved human hepatocytes, 1 μM compound, 37° C., up to 90 min, read-out: Metabolic stability in hepatocytes, in vitro t1/2, Human. As for the experimental part: (§3) Metabolic stability assays were performed in cryopreserved human and mouse hepatocytes. The hepatocytes were thawed and added to “Thawing media”, and centrifuged to pellet the hepatocytes. The cell pellet was taken up in Williams medium E (Invitrogen A1217601), the number of cells was calculated and adjusted to 1.0×10^6 cells/mi. The incubation was carried out on a heater-shaker at […], in a 24-well Picoplate (round bottom, PerkinElmer), using an incubation volume of […]. Thus, to obtain a final compound concentration of 1 μM, 0.7 μl of the 1 mM compound stock solution was pipetted to the wells of the plate. Reaction was initiated by adding 700 μl of cell suspension. Samples were incubated at 37° C. for […] and a zero sample was taken, i.e. 100 μl sample was removed to a 96-well plate and the reaction was quenched by adding 100 μl of 100% MeCN containing 50 nM Warfarin as an internal control. Consecutive samples were taken at time-points 5 min, 15 min, 30 min, 60 min, and 90 min. After finishing the experiment, samples were centrifuged at 3000 rpm for 15 min and before analysis by LC-MS/MS (Waters Corp, Milford, MA, USA).

Series [9] can be described thus: Metabolic stability in mouse hepatocytes. Particulars: cryopreserved mouse hepatocytes, 1 μM compound, 37° C., up to 90 min, read-out: Metabolic stability in hepatocytes, in vitro t1/2, Mouse. The format is in vitro ADME. Here is the method: as §3
Series [10] is described as follows: Plasma protein binding, equilibrium dialysis, human plasma. The format is in vitro ADME. Particulars: pH 7.4, equilibrium dialysis (RED) 4 hours at 37° C., read-out: Plasma protein binding, fu, Human. The method in brief:
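Compound at 10 μM in plasma dialysed against 67 mM phosphate buffer pH 7.4 for 4 h at 37° C. in RED device; unbound fraction from buffer and plasma levels by LC-MS/MS. Plasma stability checked in parallel over 4 h at 37° C. versus frozen control.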
Background: In equilibrium dialysis free small molecules cross a membrane that holds back macromolecules.

A short description of series [11]: Plasma protein binding, equilibrium dialysis, mouse plasma. The format is in vitro ADME. Particulars: pH 7.4, equilibrium dialysis (RED) 4 hours at 37° C., read-out: Plasma protein binding, fu, Mouse. Here is the method: The fraction of unbound compound (fu) in plasma from human or other animal species was determined by equilibrium dialysis at 37° C. for 4 hours using the Rapid Equilibrium Dialysis (RED) device (ThermoFisher Scientific). The test compound at a concentration of 10 μM was added to plasma and dialyzed against isotonic phosphate buffer (67 mM, pH 7.4) over 4 hours at 37° C. After dialysis, compound concentrations in buffer and plasma were quantified by LC-MS/MS. In parallel the stability of the compound in plasma was determined by incubating drug-spiked plasma (10 μM) at 37° C. for 4 hours, meanwhile the control plasma sample was kept in the freezer. The concentration of the compound in both samples was quantified by LC-MS/MS (Waters Corp, Milford, MA, USA).

Chain of NDM-1 (C7C422 29-270, looked up, species assumed): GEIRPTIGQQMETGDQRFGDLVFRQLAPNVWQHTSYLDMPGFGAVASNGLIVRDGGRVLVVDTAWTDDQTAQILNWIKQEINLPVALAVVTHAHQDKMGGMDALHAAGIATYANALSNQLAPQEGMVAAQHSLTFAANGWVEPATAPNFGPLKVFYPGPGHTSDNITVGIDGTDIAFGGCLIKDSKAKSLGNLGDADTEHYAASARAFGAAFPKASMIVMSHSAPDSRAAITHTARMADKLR
Chain of IMP-1 (P52699 19-246, looked up, species assumed): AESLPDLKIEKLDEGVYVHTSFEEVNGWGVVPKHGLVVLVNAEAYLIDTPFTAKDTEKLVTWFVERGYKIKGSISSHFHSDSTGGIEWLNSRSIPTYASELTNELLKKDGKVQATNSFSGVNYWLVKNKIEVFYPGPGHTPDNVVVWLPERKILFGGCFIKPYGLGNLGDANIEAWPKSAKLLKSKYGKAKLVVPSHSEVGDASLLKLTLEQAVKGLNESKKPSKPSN

As to `C[C@@H](c1cccc2c(-c3ccc(NS(C)(=O)=O)c(C#N)c3)c(C(=O)O)[nH]c12)N1C[C@]2(C[C@@H](CN)C2)OC1=O` [IC-16, 7-((1S)-1-(2-(aminomethyl)-6-oxo-5-oxa-7-azaspiro[3.4]octan-7-yl)ethyl)-3-(3-cyano-4-(methylsulfonamido)phenyl)-1H-indole-2-carboxylic acid], the IC50 in [1] is 0.1 to 1 nM; in [2], below 0.1 nM; in series [3] it was above 10 nM; in series [4], 1 to 10 nM. Moreover, in series [5], the “MIC values AB NDM-1” value is on record as “B (B MIC values 2 ÷ 8)”. Moreover, the “MIC values EC NDM-7” value in series [6] is recorded as “A (A = MIC values ≤ 1)”. Moreover, in series [7], the “MIC values EC NDM-1” value is on record as “A (A = MIC values ≤ 1)”. Also, the half-life at 1 μM in series [8] and in series [9] was above 6.67 h throughout. The fraction unbound at 4 h, 10 μM in series [10] and in [11] was 0.05 to 0.25 in each case.

On to `C[C@@H](c1cccc2c(-c3ccc(NS(C)(=O)=O)c(C#N)c3)c(C(=O)O)[nH]c12)n1cc(CN2CC(N)C2)oc1=O` [IC-55, 7-[(1S)-1-{5-[(3-aminoazetidin-1-yl)methyl]-2-oxo-2,3-dihydro-1,3-oxazol-3-yl}ethyl]-3-(3-cyano-4-methanesulfonamidophenyl)-1H-indole-2-carboxylic acid], for which the IC50 in series [1] was 0.1 to 1 nM; in series [2], below 0.1 nM; in series [3] it was above 10 nM; in series [4] it was above 10 nM. Further, the “MIC values AB NDM-1” value in [5] is “B (B MIC values 2 ÷ 8)”. In addition, the “MIC values EC NDM-7” value in [6] was “B (B MIC values 2 ÷ 8)”. Further, the “MIC values EC NDM-1” value in series [7] was “B (B MIC values 2 ÷ 8)”. Moreover, the half-life at 1 μM in series [8] and in [9] was 2.5 to 6.67 h throughout. The fraction unbound at 4 h, 10 μM lay in the range of 0.05 to 0.25 in [10] and 0.005 to 0.05 in series [11].

For the molecule `CC(c1noc(CCCN)n1)c1cccc2c(-c3ccc(CS(C)(=O)=O)c(F)c3)c(C(=O)O)[nH]c12` (centres unmarked) [IC-62, 7-[1-[5-(3-Aminopropyl)-1,2,4-oxadiazol-3-yl]ethyl]-3-[3-fluoro-4-(methylsulfonylmethyl)phenyl]-1H-indole-2-carboxylic acid], the IC50 in series [1] is 0.1 to 1 nM; in series [2] it was below 0.1 nM; in series [3], 1 to 10 nM; in [4], 0.1 to 1 nM. Moreover, the “MIC values AB NDM-1” value in series [5] is “A (A = MIC values ≤ 1)”. Also, the “MIC values EC NDM-7” value in series [6] is listed as “A (A = MIC values ≤ 1)”. The “MIC values EC NDM-1” value in series [7] is recorded as “A (A = MIC values ≤ 1)”. Further, the figures for the half-life at 1 μM in series [8] and in series [9] were above 6.67 h and 2.5 to 6.67 h, respectively. Moreover, the figures for the fraction unbound at 4 h, 10 μM in series [10] and in series [11] were 0.05 to 0.25 and 0.005 to 0.05, respectively.

In the case of `C[C@@H](c1cccc2c(-c3ccc(CS(C)(=O)=O)c(F)c3)c(C(=O)O)[nH]c12)N1CC2(CN(C(=N)N)C2)OC1=O` [IC-66, (S)-7-(1-(2-carbamimidoyl-6-oxo-5-oxa-2,7-diazaspiro[3.4]octan-7-yl)ethyl)-3-(3-fluoro-4-((methylsulfonyl)methyl)phenyl)-1H-indole-2-carboxylic acid], the IC50 in [1] is 0.1 to 1 nM; in series [2] it was 0.1 to 1 nM; in series [3] it was above 10 nM; in series [4], 0.1 to 1 nM. In addition, the “MIC values AB NDM-1” value in series [5] is recorded as “B (B MIC values 2 ÷ 8)”. In addition, the “MIC values EC NDM-7” value in [6] is “A (A = MIC values ≤ 1)”. In addition, in series [7], the “MIC values EC NDM-1” value was “A (A = MIC values ≤ 1)”. For the same molecule, the half-life at 1 μM in [8] was 2.5 to 6.67 h; in series [9] it was above 6.67 h. Besides, the fraction unbound at 4 h, 10 μM is above 0.25 in [10] and 0.005 to 0.05 in series [11].

(Values after patent US20240246913A1, “2-CARBOXYL-INDOLE INHIBITORS OF METALLO-BETA-LACTAMASES” (Oxford University Innovation Limited, priority 2021, published 2024).)
